Laboratory results from patent US20040198743A1 (Schering Corporation, priority 2003, published 2004).
Several values for one entry are separate records, joined by “and”; a condition that tells them apart may be missing. Equal values may be shown once.

Biological target: T1, Histamine Receptor H3 (Homo sapiens, UniProt Q9Y5N1)
T1 construct: expressed in transfected cells; host or cells: HEK293
Assay: Membrane binding assay, [3H]-N'-methylhistamine for H3 binding
Settings: not given
Experimental: (§1) Materials. Rat and guinea-pig brains were obtained frozen from Rockland Immunochemicals (Gilbertsville, Pa.). Cell lines expressing recombinant human receptors were generated by using standard transfection techniques. The following radioligands were obtained from Dupont NEN (Boston, Mass.): [^3H]-pyrilamine, 23 Ci/mmol for H 1 binding and [^3H]-N′-methylhistamine, 82 Ci/mmol for H3 binding.
(§2) Methods. Recombinant cell lines (i.e., human H1—CHO cells and human H3-HEK293) were cultured in Dulbecco's modified Eagle's medium/10% fetal bovine serum supplemented with 2 mM glutamine, penicillin (100 U/ml), and streptomycin (100 μg/ml) in a humidified 5% CO2 atmosphere at 37° C. Selection was maintained with 0.5 mg geneticin/ml. Cells were harvested for membrane preparation by aspirating media, replacing it with Hanks' balanced salt solution/5 mM EDTA, and incubating flasks for 10 minutes at 37° C. Cells were pelleted by centrifugation at 1000×g for ten minutes at 4° C.
(§3) Membrane preparation. Membranes were prepared by disrupting cells or tissue in at least ten volumes of ice-cold 50 mM Tris-HCl, pH 7.5 at 25° C., with a Polytron. Homogenates were centrifuged ten minutes at 1000×g and the supernatants were then centrifuged for ten minutes at 50,000×g. Pellets from this centrifugation step were resuspended with a Polytron, a sample was taken for protein determination (BCA; Pierce; Rockford, Ill.), and the resuspension was again centrifuged at 50,000×g. Brain membranes were stored as pellets, cell membranes as suspensions of 1 mg protein/ml Tris buffer at −20° C.
(§4) Binding assays. […] Nonspecific binding was determined in the presence of 10^−6 M chlorpheniramine for H1 binding or 10^−6 M clobenpropit for H3 binding. Assay mixtures were incubated for 30 minutes at 30° C. in polypropylene, 96-well, deep-well plates then filtered through 0.3% polyethylenimine-soaked GF/B filters. These were washed three times with 1.2 ml of Tris buffer, dried in a microwave oven, impregnated with Meltilex wax scintillant and counted at 40% efficiency in a Betaplate scintillation counter (Wallac). IC50 values were determined by interpolation or by nonlinear, least-squares, curve-fitting with the Prism program (GraphPad Software). Ki values were determined in the manner of Cheng and prusoff (Cheng, et al., (1973) Biochem. Pharm. 22:3099-3108).

T1 sequence (Q9Y5N1 whole entry): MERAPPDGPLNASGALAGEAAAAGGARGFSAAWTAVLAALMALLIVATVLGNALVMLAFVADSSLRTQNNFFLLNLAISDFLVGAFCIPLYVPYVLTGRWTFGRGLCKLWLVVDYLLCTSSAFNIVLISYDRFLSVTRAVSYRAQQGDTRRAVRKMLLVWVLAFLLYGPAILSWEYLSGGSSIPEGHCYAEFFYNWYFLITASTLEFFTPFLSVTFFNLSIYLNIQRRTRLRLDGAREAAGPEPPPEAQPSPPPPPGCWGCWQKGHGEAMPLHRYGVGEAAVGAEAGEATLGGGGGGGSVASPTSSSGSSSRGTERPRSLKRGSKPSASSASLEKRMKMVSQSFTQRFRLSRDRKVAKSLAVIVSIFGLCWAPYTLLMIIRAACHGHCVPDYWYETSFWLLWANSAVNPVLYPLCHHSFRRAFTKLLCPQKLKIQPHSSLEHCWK

Structure (SMILES)	Ki [nM]
O=C(c1cnc2ccccc2c1)N1CCC(Cc2c[nH]cn2)CC1 [Formula 17]	55
O=C(c1ccccn1)N1CCC(Cc2c[nH]cn2)CC1 [Formula 18]	2
CC(C)(C)CCC#C[C@@H]1C[C@H]1c1c[nH]cn1 [Formula 19]	3
O=C(CCN1CCC(Cc2c[nH]cn2)CC1)Nc1cccc(Cl)c1 [Formula 20]	0.8
O=S(=O)(c1ccc(Cl)cc1)N1CCC(CCc2c[nH]cn2)C1 (stereo not shown) [Formula 21]	6
c1nc(CC2CCN(CCCOc3ccc(CN4CCCCC4)cc3)CC2)c[nH]1 [Formula 22]	3
O=C(CCN1CCC(Cc2c[nH]cn2)CC1)NCCc1ccc(Cl)cc1 [Formula 23]	0.7
O=C(NCc1ccc(Cc2c[nH]cn2)cc1)Nc1cc(Cl)cc(Cl)c1 [Formula 24]	15
CN1CCC(N(C)Cc2ccc(OCCCN3CCC(Cc4c[nH]cn4)CC3)cc2)CC1 [Formula 25]	4
Clc1ccc(C(=C2CCN(CCCCc3c[nH]cn3)CC2)c2ccccn2)cc1 [Formula 26]	3
c1ccc2c(c1)C1CC(CNCCCCc3c[nH]cn3)C2c2ccccc21 (stereo not shown) [Formula 27]	19
Clc1ccc(C(CCNCCCCc2c[nH]cn2)c2ccccn2)cc1 (stereo not shown) [Formula 28]	10
Clc1ccc(C(=C2CCN(CCCCCc3c[nH]cn3)CC2)c2ccccn2)cc1 [Formula 29]	8
CC(C)(C)c1ccc(S(=O)(=O)NCCCCc2c[nH]cn2)cc1 [Formula 30]	17
C/C(=C\C(=O)Nc1ccc(Cl)cc1)c1ccc(Cc2c[nH]cn2)cc1 [Formula 31]	470
O=C(NCCCCc1c[nH]cn1)C1(c2ccc(Cl)cc2)CCC1 [Formula 32]	19
O=C(/C=C/c1ccc(Cc2c[nH]cn2)cc1)NCCc1ccc(Cl)cc1 [Formula 33]	7

Tested on: cutaneous microvascular permeability produced by compound 48/80
Assay: Cutaneous microvascular permeability (Evans blue extravasation) elicited by intradermal compound 48/80
Type: in vivo, guinea pig
Settings: CTM 1.0 mg/kg, THIO 1.0 mg/kg, CLOB 0.3 mg/kg, i.v.

Structure (SMILES)	effect on baseline Evans blue leakage (dye leakage due to i.d. saline administration)
CN(C)CCC(c1ccc(Cl)cc1)c1ccccn1 (stereo not shown) [CTM, chlorpheniramine]	Neither CTM (1.0 mg/kg, i.v.), THIO (1.0 mg/kg, i.v.) nor CLOB (0.3 mg/kg, i.v.) had any effect
NC(=NCc1ccc(Cl)cc1)SCCCc1cnc[nH]1 [Clobenpropit, clobenpropit]	Neither CTM (1.0 mg/kg, i.v.), THIO (1.0 mg/kg, i.v.) nor CLOB (0.3 mg/kg, i.v.) had any effect
S=C(NC1CCCCC1)N1CCC(c2cnc[nH]2)CC1 [Thioperamide, thioperamide]	Neither CTM (1.0 mg/kg, i.v.), THIO (1.0 mg/kg, i.v.) nor CLOB (0.3 mg/kg, i.v.) had any effect

Same assay, conditions: THIO 1.0 mg/kg i.v., CLOB 0.3 mg/kg i.v., given alone; listed as CLOB

Structure (SMILES)	effect of H3 antagonist alone on cutaneous permeability elicited by compound 48/80
NC(=NCc1ccc(Cl)cc1)SCCCc1cnc[nH]1 [Clobenpropit, clobenpropit]	no observable effect

Same assay, conditions: THIO 1.0 mg/kg i.v., CLOB 0.3 mg/kg i.v., given alone; listed as THIO

Structure (SMILES)	effect of H3 antagonist alone on cutaneous permeability elicited by compound 48/80
S=C(NC1CCCCC1)N1CCC(c2cnc[nH]2)CC1 [Thioperamide, thioperamide]	no observable effect

Same assay, conditions: THIO 1.0 mg/kg i.v., CLOB 0.3 mg/kg i.v., given alone; listed as clobenpropit

Structure (SMILES)	effect of H3 antagonist alone on cutaneous permeability elicited by compound 48/80
NC(=NCc1ccc(Cl)cc1)SCCCc1cnc[nH]1 [Clobenpropit, clobenpropit]	does not alter

Same assay, conditions: THIO 1.0 mg/kg i.v., CLOB 0.3 mg/kg i.v., given alone; listed as thioperamide

Structure (SMILES)	effect of H3 antagonist alone on cutaneous permeability elicited by compound 48/80
S=C(NC1CCCCC1)N1CCC(c2cnc[nH]2)CC1 [Thioperamide, thioperamide]	does not alter

Same assay, conditions: cpd 48/80 0.0003% i.d.; treatment i.v. 10 minutes before; each drug 1 mg/kg in Table 3; mean ± SEM

Structure (SMILES)	% Inhibition of Compound 48/80 Skin Responses
CN(C)CCC(c1ccc(Cl)cc1)c1ccccn1 (stereo not shown) [CTM, chlorpheniramine]	17%±4% and 17.3 ± 3.6%

Same assay, conditions: cpd 48/80 0.001% i.d.; treatment i.v. 10 minutes before; each drug 1 mg/kg in Table 3; mean ± SEM

Structure (SMILES)	% Inhibition of Compound 48/80 Skin Responses
CN(C)CCC(c1ccc(Cl)cc1)c1ccccn1 (stereo not shown) [CTM, chlorpheniramine]	31%±4% and 31.5 ± 3.7 %

Same assay, conditions: cpd 48/80 0.003% i.d.; treatment i.v. 10 minutes before; each drug 1 mg/kg in Table 3; mean ± SEM

Structure (SMILES)	% Inhibition of Compound 48/80 Skin Responses
CN(C)CCC(c1ccc(Cl)cc1)c1ccccn1 (stereo not shown) [CTM, chlorpheniramine]	32%±4% and 31.8 ± 3.8 %

Same assay, conditions: cpd 48/80 0.01% i.d.; treatment i.v. 10 minutes before; each drug 1 mg/kg in Table 3; mean ± SEM

Structure (SMILES)	% Inhibition of Compound 48/80 Skin Responses
CN(C)CCC(c1ccc(Cl)cc1)c1ccccn1 (stereo not shown) [CTM, chlorpheniramine]	37%±4% and 36.7 ± 3.8 %

Biological target: T2, Histamine Receptor H1 (Homo sapiens, UniProt P35367)
T2 construct: expressed in transfected cells; host or cells: CHO
Assay: Membrane binding assay, [3H]-pyrilamine for H1 binding
Settings: not given
Experimental: as §1, §2, §3, §4

T2 sequence (P35367 whole entry): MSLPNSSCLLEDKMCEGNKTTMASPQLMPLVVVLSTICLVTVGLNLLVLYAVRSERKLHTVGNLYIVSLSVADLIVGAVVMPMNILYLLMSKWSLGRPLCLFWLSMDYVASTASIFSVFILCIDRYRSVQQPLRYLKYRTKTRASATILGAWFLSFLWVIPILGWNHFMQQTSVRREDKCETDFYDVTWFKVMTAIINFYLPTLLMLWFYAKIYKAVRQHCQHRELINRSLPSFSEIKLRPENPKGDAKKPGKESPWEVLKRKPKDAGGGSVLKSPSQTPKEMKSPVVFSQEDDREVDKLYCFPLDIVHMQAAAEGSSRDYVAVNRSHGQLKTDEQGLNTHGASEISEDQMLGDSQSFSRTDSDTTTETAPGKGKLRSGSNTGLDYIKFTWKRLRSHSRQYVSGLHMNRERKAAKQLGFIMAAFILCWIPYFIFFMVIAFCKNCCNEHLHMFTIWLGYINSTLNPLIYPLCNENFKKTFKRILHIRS

Structure (SMILES)	Ki [nM]
O=C(CCN1CCC(Cc2c[nH]cn2)CC1)Nc1cccc(Cl)c1 [Formula 20]	330
O=S(=O)(c1ccc(Cl)cc1)N1CCC(CCc2c[nH]cn2)C1 (stereo not shown) [Formula 21]	660
c1nc(CC2CCN(CCCOc3ccc(CN4CCCCC4)cc3)CC2)c[nH]1 [Formula 22]	29
Clc1ccc(C(=C2CCN(CCCCc3c[nH]cn3)CC2)c2ccccn2)cc1 [Formula 26]	2
Clc1ccc(C(CCNCCCCc2c[nH]cn2)c2ccccn2)cc1 (stereo not shown) [Formula 28]	310
Clc1ccc(C(=C2CCN(CCCCCc3c[nH]cn3)CC2)c2ccccn2)cc1 [Formula 29]	5
